From patent US10239849B2 (Merck Sharp & Dohme Corp., priority 2015, dated 2019)

Experiments:
[1] = molecular target: T1, glutathione-S-transferase (GST) tagged LXRbeta LBD (ligand binding domain) (Homo sapiens, UniProt P55055); assay: LanthaScreen TR-FRET Liver X Receptor Coactivator Assay, LXR beta-LBD; type: biochemical; details: for Emax: efficacy in relation to reference dual agonist T1317, read-out: LXR beta activity at max dose (%) (Emax); for EC50: potency (Inflection Point) of co-activator recruitment, TR-FRET, read-out: LXR beta IP
T1 construct: purchased Invitrogen pv4658.pps
T1 sequence (P55055 222-460 limits assumed): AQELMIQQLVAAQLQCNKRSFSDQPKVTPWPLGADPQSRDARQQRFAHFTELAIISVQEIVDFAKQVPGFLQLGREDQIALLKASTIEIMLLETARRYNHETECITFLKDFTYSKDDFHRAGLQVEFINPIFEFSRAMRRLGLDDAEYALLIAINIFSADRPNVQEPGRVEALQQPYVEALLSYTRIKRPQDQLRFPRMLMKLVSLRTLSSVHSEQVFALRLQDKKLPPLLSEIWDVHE
Outline: (§1)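 Measures ligand-driven coactivator peptide binding by time-resolved energy transfer between terbium-tagged anti-GST antibody and fluorescein-labelled peptide. Incubation is at room temperature.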

[2] = molecular target: T2, glutathione-S-transferase (GST) tagged LXRalpha LBD (ligand binding domain) (Homo sapiens, UniProt Q13133); assay: LanthaScreen TR-FRET Liver X Receptor Coactivator Assay, LXR alpha-LBD; type: biochemical; details: for Emax: efficacy in relation to reference dual agonist T1317, read-out: LXR alpha activity at max dose (%) (Emax); for LXR alpha IP (nM) / EC50: potency (Inflection Point) of co-activator recruitment, TR-FRET; for EC50: read-out: LXR alpha IP
T2 construct: purchased Invitrogen pv4655
T2 sequence (Q13133 209-447 limits assumed): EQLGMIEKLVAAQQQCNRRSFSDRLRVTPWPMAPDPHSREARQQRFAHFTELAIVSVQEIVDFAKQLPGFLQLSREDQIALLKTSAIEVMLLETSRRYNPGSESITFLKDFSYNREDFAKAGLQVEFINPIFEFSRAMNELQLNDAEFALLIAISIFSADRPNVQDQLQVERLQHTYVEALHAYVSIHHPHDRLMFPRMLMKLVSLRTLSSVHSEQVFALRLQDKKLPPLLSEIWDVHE
Outline: as §1

Emax [1] | EC50 [1] | Emax [2] | LXR alpha IP (nM) [2] | EC50 [2] | Compound
31% | 105 nM | 16% | No IP |  | CN(C)C(=O)c1ccc(-c2cnc(N3CCN(C(=O)OCC4CC4(C)C)CC3)c(C#N)c2)cc1Cl (stereo not drawn) [Example 3-13, (2,2-dimethylcyclopropyl)methyl 4-{5-[3-chloro-4-(dimethylcarbamoyl)phenyl]-3-cyanopyridin-2-yl}piperazine-1-carboxylate]
113% | 30 nM | 33% |  | 2420 nM | CN(CCn1cncn1)C(=O)c1ccc(-c2cnc(N3CCN(C(=O)C(C)(C)c4ccccc4)CC3)c(C#N)c2)cc1Cl [Example 6-3, 2-chloro-4-{5-cyano-6-[4-(2-methyl-2-phenylpropanoyl)piperazin-1-yl]pyridin-3-yl}-N-methyl-N-[2-(1H-1,2,4-triazol-1-yl)ethyl]benzamide]
125% | 6 nM | 66% |  | 5290 nM | CN(C)C(=O)c1ccc(-c2cnc(N3CCN(C(=O)C(O)(C(F)(F)F)C(F)(F)F)CC3)c(C#N)c2)cc1Cl [Example 2-30, 2-chloro-4-(5-cyano-6-{4-[3,3,3-trifluoro-2-hydroxy-2-(trifluoromethyl)propanoyl]piperazin-1-yl}pyridin-3-yl)-N,N-dimethylbenzamide]
97% | 380 nM | 29% |  | 5730 nM | CN(C)C(=O)c1ccc(-c2ccc(N3CCN(S(=O)(=O)c4c(Cl)cccc4Cl)CC3)cc2)cc1Cl [Example 4-13, 3-chloro-4′-{4-[(2,6-dichlorophenyl)sulfonyl]piperazin-1-yl}-N,N-dimethylbiphenyl-4-carboxamide]
73% | 1190 nM | 57% |  | 10000 nM | CC(C)(C)OC(=O)N1CCN(c2ncc(-c3ccc(C(=O)N(CCO)Cc4ccccc4)c(Cl)c3)cc2C#N)CC1 [Example 5-30, tert-butyl 4-(5-{4-[benzyl(2-hydroxyethyl)carbamoyl]-3-chlorophenyl}-3-cyanopyridin-2-yl)piperazine-1-carboxylate]
62% | 49 nM | 11% |  | 671 nM | CN(C)C(=O)c1c(Cl)cc(-c2cnc(N3CC4CCC3CN4C(=O)OC(C)(C)C)c(C#N)c2)cc1Cl (stereo not drawn) [Example 7-4, tert-butyl 5-(3-cyano-5-(3,5-dichloro-4-(dimethylcarbamoyl)phenyl)pyridin-2-yl)-2,5-diazabicyclo[2.2.2]octane-2-carboxylate]
63% | 2330 nM | 10% | No IP |  | Cc1nonc1CC(=O)N1CCN(c2ncc(-c3ccc(C(=O)N(C)C)c(Cl)c3)cc2C#N)CC1 [Example 2-10, 2-chloro-4-(5-cyano-6-{4-[(4-methyl-1,2,5-oxadiazol-3-yl)acetyl]piperazin-1-yl}pyridin-3-yl)-N,N-dimethylbenzamide]
71% | 118 nM | 52% |  | 8460 nM | CN(CCn1cncn1)C(=O)c1ccc(-c2cnc(N3CCN(C(=O)OC(C)(C)C)CC3)c(C#N)c2)cc1Cl [Example 5-24, tert-butyl 4-[5-(3-chloro-4-{methyl[2-(1H-1,2,4-triazol-1-yl)ethyl]carbamoyl}phenyl)-3-cyanopyridin-2-yl]piperazine-1-carboxylate]
84% | 43 nM | 25% |  | 1990 nM | CN(C)C(=O)c1ccc(-c2cnc(N3CCN(C(=O)C4(c5ccccc5)CCCC4)CC3)c(C#N)c2)cc1Cl [Example 2-26, 2-chloro-4-(5-cyano-6-{4-[(1-phenylcyclopentyl)carbonyl]piperazin-1-yl}pyridin-3-yl)-N,N-dimethylbenzamide]
67% | 1860 nM | 27% |  | 8530 nM | CN(CC(O)c1ccc(O)cc1)C(=O)c1ccc(-c2cnc(N3CCN(C(=O)OC(C)(C)C)CC3)c(C#N)c2)cc1Cl (stereo not drawn) [Example 5-31, tert-butyl 4-[5-(3-chloro-4-{[2-hydroxy-2-(4-hydroxyphenyl)ethyl](methyl)carbamoyl}phenyl)-3-cyanopyridin-2-yl]piperazine-1-carboxylate]
78% | 32 nM | 73% |  | 1500 nM | CN(C)C(=O)c1ccc(-c2ccc(N3CC4CCC3CN4C(=O)OC(C)(C)C)cc2)cc1Cl (stereo not drawn) [Example 8-4, tert-butyl 5-[3′-chloro-4′-(dimethylcarbamoyl)biphenyl-4-yl]-2,5-diazabicyclo[2.2.2]octane-2-carboxylate]
108% | 8 nM | 51% |  | 3410 nM | CN(C)C(=O)c1ccc(-c2cnc(N3CCN(S(=O)(=O)c4ccccc4Cl)CC3)c(C#N)c2)cc1Cl [Example 1-11, 2-chloro-4-(6-{4-[(2-chlorophenyl)sulfonyl]piperazin-1-yl}-5-cyanopyridin-3-yl)-N,N-dimethylbenzamide]
69% | 13 nM | 18% |  | 292 nM | CN(C)C(=O)c1ccc(-c2cnc(N3CCN(C(=O)C(O)(c4ccccc4Cl)C(F)(F)F)CC3)c(C#N)c2)cc1Cl (stereo not drawn) [Example 2-38, 2-chloro-4-(6-{4-[2-(2-chlorophenyl)-3,3,3-trifluoro-2-hydroxypropanoyl]piperazin-1-yl}-5-cyanopyridin-3-yl)-N,N-dimethylbenzamide]
105% | 56 nM | 67% |  | 4810 nM | CN(C)C(=O)c1ccc(-c2cnc(N3CCN(C(=O)C(C)(C)C)CC3)c(C#N)c2)cc1Cl [Example 2-3, 2-chloro-4-{5-cyano-6-[4-(2,2-dimethylpropanoyl)piperazin-1-yl]pyridin-3-yl}-N,N-dimethylbenzamide]
83% | 881 nM | 20% | No IP |  | CN(C)C(=O)c1ccc(-c2ccc(N3CCN(C(=O)c4c(F)cccc4C(F)(F)F)CC3)cc2)cc1Cl [Example 4-12, 3-chloro-4′-(4-{[2-fluoro-6-(trifluoromethyl)phenyl]carbonyl}piperazin-1-yl)-N,N-dimethylbiphenyl-4-carboxamide]
93% | 12 nM | 41% |  | 929 nM | CC(C)C(O)(C(=O)N1CCN(c2ncc(-c3cc(Cl)c(C(=O)N(C)C)c(Cl)c3)cc2C#N)CC1)C(F)(F)F (single isomer, unassigned) [Example 7-5, 2,6-dichloro-4-(5-cyano-6-{4-[2-hydroxy-3-methyl-2-(trifluoromethyl)butanoyl]piperazin-1-yl}pyridin-3-yl)-N,N-dimethylbenzamide]

Compound | Emax [1] | EC50 [1] | Emax [2] | LXR alpha IP (nM) [2] | EC50 [2]
CN(C)C(=O)c1ccc(-c2ccc(N3CC4CCC(C3)N4C(=O)OC(C)(C)C)c(Cl)c2)cc1Cl [Example 8-10, tert-butyl 3-[3,3′-dichloro-4′-(dimethylcarbamoyl)biphenyl-4-yl]-3,8-diazabicyclo[3.2.1]octane-8-carboxylate] | 63% | 70 nM | 64% |  | 660 nM
CN(C)C(=O)c1ccc(-c2ccc(N3CC4CCC(C3)N4S(=O)(=O)c3c(Cl)cccc3Cl)c(Cl)c2)cc1Cl [Example 8-16, 3,3′-dichloro-4′-{8-[(2,6-dichlorophenyl)sulfonyl]-3,8-diazabicyclo[3.2.1]oct-3-yl}-N,N-dimethylbiphenyl-4-carboxamide] | 82% | 37 nM | 79% |  | 569 nM
